Source: ChEMBL document CHEMBL3879915, “Methods of inhibiting PRMT5” (2014)

What was measured:
PRMT5/MEP50 complex = PRMT5/MEP50 complex (Homo sapiens, UniProt O14744); test: Inhibition of recombinant human fetal brain FLAG-tagged PRMT5/full length human testis 6His-tagged MEP50 expressed in baculovirus infected insect Sf9 cells using human histone H4 (1 to 15 residues) as substrate preincubated for 30 mins followed by [3H]-SAM addition
[1] = biological target: Protein arginine N-methyltransferase 5 (Homo sapiens, UniProt O14744); test: Inhibition of PRMT5 in human Z138 cells assessed as decrease in di-methyl arginine levels after 96 hrs by Western blot method; format: cell-based
Sequence of Protein arginine N-methyltransferase 5 (O14744 whole entry): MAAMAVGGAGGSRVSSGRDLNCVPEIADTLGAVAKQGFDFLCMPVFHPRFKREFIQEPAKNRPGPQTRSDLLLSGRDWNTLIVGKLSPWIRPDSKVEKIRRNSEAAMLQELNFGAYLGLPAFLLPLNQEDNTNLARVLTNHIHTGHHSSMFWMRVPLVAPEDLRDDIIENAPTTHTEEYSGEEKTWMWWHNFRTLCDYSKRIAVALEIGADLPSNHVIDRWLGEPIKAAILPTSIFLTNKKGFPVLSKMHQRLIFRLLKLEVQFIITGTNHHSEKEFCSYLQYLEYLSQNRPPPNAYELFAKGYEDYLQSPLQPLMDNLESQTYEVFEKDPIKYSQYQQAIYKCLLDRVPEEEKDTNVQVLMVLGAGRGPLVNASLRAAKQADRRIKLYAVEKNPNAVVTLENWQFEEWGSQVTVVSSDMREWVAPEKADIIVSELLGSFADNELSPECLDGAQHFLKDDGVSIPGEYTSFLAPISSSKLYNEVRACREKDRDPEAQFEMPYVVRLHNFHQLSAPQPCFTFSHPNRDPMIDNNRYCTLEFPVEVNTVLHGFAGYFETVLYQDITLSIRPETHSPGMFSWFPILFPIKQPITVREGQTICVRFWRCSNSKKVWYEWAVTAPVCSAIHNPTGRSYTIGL

[2] = Antiproliferative activity against human Z138 cells assessed as inhibition of cell viability after 5 days by Cell-Titer Glo assay; format: functional, cell-based; details: Z-138, 120 h

Sequence of PRMT5/MEP50 complex (O14744 whole entry, the tested form may be a part): as the sequence (O14744 whole entry) above
Sequence of PRMT5/MEP50 complex (Q9BQA1 whole entry, further chain, the tested form may be a part): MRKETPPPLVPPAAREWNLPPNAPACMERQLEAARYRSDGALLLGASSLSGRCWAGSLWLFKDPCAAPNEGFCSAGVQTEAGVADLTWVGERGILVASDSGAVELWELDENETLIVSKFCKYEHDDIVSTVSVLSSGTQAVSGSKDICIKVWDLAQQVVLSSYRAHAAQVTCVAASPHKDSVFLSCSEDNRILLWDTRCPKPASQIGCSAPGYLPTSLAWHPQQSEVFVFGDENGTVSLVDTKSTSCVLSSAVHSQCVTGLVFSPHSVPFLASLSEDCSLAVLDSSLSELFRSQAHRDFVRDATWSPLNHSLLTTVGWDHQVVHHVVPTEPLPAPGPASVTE

Row | SMILES | IC50 (PRMT5/MEP50 complex) [nM] | EC50 [1] [nM] | EC50 [2] [nM]
1 | C[C@H](Oc1cccc2cccnc12)C(=O)NC[C@@H](O)CN1Cc2ccccc2C1 | 101 to 10000 | 101 to 1000 | > 20000
2 | O=C(COc1cccc2c1OCC(=O)N2)NCC(O)CN1CCc2ccccc2C1 (centres undefined) | 1000 to 10000 | 1000 to 10000 | > 20000
3 | NC(=O)c1ccc(-c2cccc(OCC(O)CN3CCc4ccccc4C3)c2)cc1 (centres undefined) | 101 to 1000 | 1000 to 10000 | > 20000
4 | O=C(CNc1ccccc1)NCC(O)CN1CCc2ccccc2C1 (centres undefined) | 1000 to 10000 | 1000 to 10000 | > 20000
5 | O=C(COc1cccc(C(=O)N2CCOCC2)c1)NCC(O)CN1CCc2ccccc2C1 (centres undefined) | 101 to 1000 | 101 to 1000 | 10000 to 50000
6 | O=C(Cn1cnc2ccc(-c3cccc(OCC(O)CN4CCc5ccccc5C4)c3)cc21)N1CCCCC1 (centres undefined) | 101 to 1000 | 101 to 1000 | 10000 to 40000
7 | CN1CCC(n2cnc3ccc(-c4ccnc(NCC(O)CN5CCc6ccccc6C5)c4)cc32)C1 (centres undefined) | < 100 | 101 to 1000 | 1000 to 10000
8 | CC(C)n1cnc2ccc(-c3cccc(OCC(O)CN4CCc5ccccc5C4)c3)cc21 (centres undefined) | 101 to 1000 | 101 to 1000 | 10000 to 40000
9 | Cn1cnc2cnc(-c3cccc(OCC(O)CN4CCc5ccccc5C4)c3)nc21 (centres undefined) | 101 to 1000 | 101 to 1000 | 1000 to 10000
10 | CS(=O)(=O)Nc1ccc(OCC(=O)NCC(O)CN2CCc3ccccc3C2)cc1 (centres undefined) | 101 to 1000 | 101 to 1000 | > 20000
11 | Cc1c(NC2CCOCC2)cccc1C(=O)NCC(O)CN1CCc2ccccc2C1 (centres undefined) | < 100 | < 100 | 1000 to 10000
12 | NC(=O)c1cccc(-c2cccc(OCC(O)CN3CCc4ccccc4C3)c2)c1 (centres undefined) | 101 to 1000 | 1000 to 10000 | > 20000
13 | CC(Oc1ccccc1)C(=O)NCC(O)CN1CCc2ccccc2C1 (centres undefined) | < 100 | 101 to 1000 | 1000 to 10000
14 | CN(C)c1ccc(OCC(=O)NCC(O)CN2CCc3ccccc3C2)cc1 (centres undefined) | 101 to 1000 | 101 to 1000 | 10000 to 50000
15 | O=C(NCC(O)CN1CCc2ccccc2C1)c1cccc(-c2ccccn2)c1 (centres undefined) | < 100 | < 100 | 1000 to 10000
16 | OC(COc1cccc(-c2ccc3nn[nH]c3c2)c1)CN1CCc2ccccc2C1 (centres undefined) | 101 to 1000 | 1000 to 10000 | 1000 to 10000
17 | CC(Oc1cccc(CNC2CCCC2)c1)C(O)CN1CCc2ccccc2C1 (centres undefined) | 101 to 1000 | 101 to 1000 | 1000 to 10000
18 | Cn1cnc2cc(-c3cc(NCC(O)CN4CCc5ccccc5C4)n[nH]3)ccc21 (centres undefined) | 101 to 1000 | 101 to 1000 | 1000 to 10000
19 | O=C(Cn1cnc2ccc(-c3cccc(OCC(O)CN4CCc5ccccc5C4)c3)cc21)N1CCCC1 (centres undefined) | 101 to 1000 | 101 to 1000 | 10000 to 40000
20 | Cn1cnc2ccc(-c3cccc(NCC(O)CN4CCc5ccccc5C4)c3)cc21 (centres undefined) | < 100 | 101 to 1000 | 1000 to 10000
21 | CN1CCC(n2ncc3ccc(OCC(=O)NCC(O)CN4CCc5ccccc5C4)cc32)CC1 (centres undefined) | < 100 | 101 to 1000 | > 20000
22 | O=C(NCC(O)CN1CCc2ccccc2C1)c1cccc(N2CCNCC2)c1 (centres undefined) | < 100 | 101 to 1000 | 10000 to 50000
23 | CC(=O)Nc1ccc(OCC(=O)NCC(O)CN2CCc3ccccc3C2)cc1 (centres undefined) | 101 to 1000 | 101 to 1000 | > 20000

Row | SMILES | IC50 (PRMT5/MEP50 complex) [nM] | EC50 [1] [nM] | EC50 [2] [nM]
24 | CN(C)S(=O)(=O)c1ccccc1OCC(=O)NCC(O)CN1Cc2ccccc2C1 (centres undefined) | < 100 | 101 to 1000 | 1000 to 10000
25 | O=C(c1cccc(-c2cccc(OCC(O)CN3CCc4ccccc4C3)c2)c1)N1CCOCC1 (centres undefined) | 101 to 1000 | 1000 to 10000 | > 20000
26 | Cn1cnc2ccc(-c3ccnc(NCC(O)CN4CCc5ccccc5C4)c3)cc21 (centres undefined) | < 100 | 101 to 1000 | 1000 to 10000
27 | Cn1cc2ccc(-c3cccc(OCC(O)CN4CCc5ccccc5C4)c3)nc2n1 (centres undefined) | < 100 | 101 to 1000 | 10000 to 40000
28 | CNC(=O)c1ccccc1OCC(=O)NCC(O)CN1CCc2ccccc2C1 (centres undefined) | 101 to 1000 | 101 to 1000 | > 20000
29 | O=C(COc1ccccc1-c1cc[nH]n1)NCC(O)CN1Cc2ccccc2C1 (centres undefined) | 101 to 1000 | 101 to 1000 | > 20000
30 | O=C(COc1ccccc1)NC[C@H](O)CN1CCc2ccccc2C1 | 101 to 1000 | 101 to 1000 | 10000 to 50000
31 | Cn1cnc2ccc(-c3cc(NCC(O)CN4CCc5ccccc5C4)ncn3)cc21 (centres undefined) | 101 to 1000 | 101 to 1000 | 1000 to 10000
32 | COc1ccc(OCC(=O)NCC(O)CN2CCc3ccccc3C2)cc1 (centres undefined) | 101 to 1000 | 101 to 1000 | 10000 to 50000
33 | Cn1cnc2ccc(-c3cncc(NCC(O)CN4CCc5ccccc5C4)n3)cc21 (centres undefined) | 101 to 1000 | 101 to 1000 | > 20000
34 | COC(=O)c1cncc(-c2cccc(OCC(O)CN3CCc4ccccc4C3)c2)c1 (centres undefined) | 1000 to 10000 | > 20000 | > 20000
35 | CN(C)C(=O)c1ccccc1OCC(=O)NCC(O)CN1CCc2ccccc2C1 (centres undefined) | 101 to 1000 | 101 to 1000 | 10000 to 50000
36 | O=C(COc1cccc2nccnc12)NCC(O)CN1CCc2ccccc2C1 (centres undefined) | < 100 | < 100 | 1000 to 10000
37 | CNC(=O)c1cccc(-c2cccc(OCC(O)CN3CCc4ccccc4C3)c2)c1 (centres undefined) | 101 to 1000 | 1000 to 10000 | > 20000
38 | OC(COc1cccc(-c2ccc3cn[nH]c3c2)c1)CN1CCc2ccccc2C1 (centres undefined) | 101 to 1000 | 1000 to 10000 | 10000 to 40000
39 | CN(C)c1ccc(-c2cccc(OCC(O)CN3CCc4ccccc4C3)c2)cc1 (centres undefined) | 101 to 1000 | 1000 to 10000 | > 20000
40 | CN1CCC(n2cnc3ccc(-c4cccc(OCC(O)CN5CCc6ccccc6C5)c4)cc32)C1 (centres undefined) | < 100 | 101 to 1000 | 1000 to 10000
41 | O=C(NCC(O)CN1CCc2ccccc2C1)c1cccc(-c2ccncc2)c1 (centres undefined) | < 100 | < 100 | 1000 to 10000
42 | Cn1nccc1-c1cccc(C(=O)NCC(O)CN2CCc3ccccc3C2)c1 (centres undefined) | < 100 | < 100 | 1000 to 10000
43 | CC(=O)N1CCC(n2cnc3ccc(-c4ccnc(NCC(O)CN5CCc6ccccc6C5)c4)cc32)CC1 (centres undefined) | 101 to 1000 | 101 to 1000 | 1000 to 10000
44 | O[C@H](COc1cccc(-c2cccc3cccnc23)c1)CN1CCc2ccccc2C1 | 101 to 1000 | 1000 to 10000 | > 20000
45 | OC(CNc1cccc(-c2cccc3[nH]cnc23)c1)CN1CCc2ccccc2C1 (centres undefined) | 101 to 1000 | 101 to 1000 | 10000 to 40000
46 | O=C(COc1ccccc1OCCN1CCOCC1)NC[C@H](O)CN1CCc2ccccc2C1 | < 100 | 101 to 1000 | 10000 to 50000

Row | SMILES | IC50 (PRMT5/MEP50 complex) [nM] | EC50 [1] [nM] | EC50 [2] [nM]
47 | Cn1cnc2ccc(-c3cncc(NCC(O)CN4CCc5ccccc5C4)c3)cc21 (centres undefined) | < 100 | < 100 | 1000 to 10000
48 | Cc1ccc(F)c(-c2cccc(OCC(O)CN3CCc4ccccc4C3)c2)c1 (centres undefined) | 101 to 1000 | 1000 to 10000 | > 20000
49 | CN1CCN(C(=O)Cn2cnc3ccc(-c4cccc(OCC(O)CN5CCc6ccccc6C5)c4)cc32)CC1 (centres undefined) | 101 to 1000 | 101 to 1000 | 10000 to 40000
50 | O=C(COc1ccccc1C1CCCNC1)NCC(O)CN1CCc2ccccc2C1 (centres undefined) | 101 to 1000 | 101 to 1000 | 1000 to 10000
51 | Oc1cccc(-c2cccc(OCC(O)CN3CCc4ccccc4C3)c2)c1 (centres undefined) | 101 to 1000 | 1000 to 10000 | 10000 to 40000
52 | CC(=O)Nc1cccc(OCC(=O)NCC(O)CN2CCc3ccccc3C2)c1 (centres undefined) | 1000 to 10000 | 101 to 1000 | 10000 to 50000
53 | C[C@@H](Oc1cccc2cccnc12)C(=O)NC[C@H](O)CN1Cc2ccccc2C1 | < 100 | 101 to 1000 | 1000 to 10000
54 | CN1CCN(c2cccc(C(=O)NCC(O)CN3CCc4ccccc4C3)c2)CC1 (centres undefined) | < 100 | 101 to 1000 | 10000 to 50000
55 | OC(COc1cccc(-c2ccc3ncoc3c2)c1)CN1CCc2ccccc2C1 (centres undefined) | 101 to 1000 | 1000 to 10000 | 10000 to 40000
56 | Cc1cn(C)c2cc(-c3cccc(OCC(O)CN4CCc5ccccc5C4)c3)ccc12 (centres undefined) | 101 to 1000 | 1000 to 10000 | > 20000
57 | Cn1ccc(C(=O)Nc2cccc(OCC(O)CN3CCc4ccccc4C3)c2)n1 (centres undefined) | 1000 to 10000 | 1000 to 10000 | > 20000
58 | CN(C)S(=O)(=O)c1ccccc1OCC(=O)NCC(O)CN1CCc2ccccc2C1 (centres undefined) | < 100 | < 100 | 101 to 1000
59 | O=C(Nc1cccc(OCC(O)CN2CCc3ccccc3C2)c1)c1cnccn1 (centres undefined) | 101 to 1000 | 1000 to 10000 | > 20000
60 | O=C(COc1ccccc1F)NCC(O)CN1CCc2ccccc2C1 (centres undefined) | 101 to 1000 | 101 to 1000 | 10000 to 50000
61 | N#Cc1ccccc1-c1cccc(OCC(O)CN2CCc3ccccc3C2)c1 (centres undefined) | 101 to 1000 | 1000 to 10000 | 10000 to 40000
62 | CN(CC(O)CN1CCc2ccccc2C1)c1cccc(CNC2CCOCC2)c1 (centres undefined) | < 100 | 1000 to 10000 | > 20000
63 | OC(COc1cccc(-c2ccccc2)c1)CN1CCc2ccccc2C1 (centres undefined) | 101 to 1000 | 1000 to 10000 | > 20000
64 | CN(C)c1ccccc1OCC(=O)NCC(O)CN1CCc2ccccc2C1 (centres undefined) | < 100 | < 100 | 1000 to 10000
65 | OC(COc1cccc(-c2ccc3c(c2)OCO3)c1)CN1CCc2ccccc2C1 (centres undefined) | 101 to 1000 | 10000 to 40000 | 10000 to 40000
66 | CC(=O)c1ccc(-c2cccc(OCC(O)CN3CCc4ccccc4C3)c2)cc1 (centres undefined) | 101 to 1000 | 1000 to 10000 | > 20000
67 | Cc1ccccc1OCC(=O)NCC(O)CN1CCc2ccccc2C1 (centres undefined) | 101 to 1000 | 101 to 1000 | 1000 to 10000
68 | O=C(Cn1ccc2cnc(-c3cccc(OCC(O)CN4CCc5ccccc5C4)c3)nc21)N1CCOCC1 (centres undefined) | 101 to 1000 | 101 to 1000 | 10000 to 40000
